Laboratory results published in US6514952B1, “Hydantoin derivatives as inhibitors of leucocyte adhesion and as VLA-4 antagonists” (Hoechst Aktiengesellschaft, priority 1996, dated 2003).

Biological target: T1, interaction between VCAM-1 and VLA-4 (Homo sapiens, UniProt P05556+P13612)
T1 construct: the VLA-4-integrins, are offered in their natural form as surface molecules on human U937 cells; host or cells: U937 cells (VLA-4, endogenous); hVCAM-1(1-3)-IgG from supernatant of transfected COS cells (ATCC CRL1651)
Assay: U937/VCAM-1 cell adhesion test (adhesion of U937 cells to hVCAM-1(1-3)-IgG)
Assay type: cell-based
Conditions: inhibition of adhesion of human U937 cells (ATCC CRL 1593) to hVCAM-1(1-3)-IgG
From the text: As a test method for the activity of the compounds of the formula I on the interaction between VCAM-1 and VLA-4, an assay is used which is specific for this interaction. The cellular binding components, i.e. the VLA-4-integrins, are offered in their natural form as surface molecules on human U937 cells (ATCC CRL 1593), which belong to the group of leucocytes. As specific binding components, recombinant soluble fusion proteins, prepared by genetic engineering and consisting of the extracytoplasmic domains of human VCAM-1 and the constant region of a human immunoglobulin of the subclass IgG1, are used.
Assay for the Measurement of the Adhesion of U937 Cells (ATCC CRL 1593) to hVCAM-1(1-3)-IgG
1. Preparation of Human VCAM-1(1-3)-IgG and Human CD4-IgG
A genetic construct for the expression of the extracellular domains of human VCAM-1 was employed, associated with the genetic sequence of the heavy chain of human immunoglobulin IgG1 (hinge, CH2 and CH3 regions), from Dr. Brian Seed, Massachusetts General Hospital, Boston, USA. The soluble fusion protein hVCAM-1(1-3)-IgG contained the throe amino-terminal extracellular immunoglobulin-like domains of human VCAM-1 (Damle and Aruffo, Proc. Natl. Acad. Sci. USA 1991, 88, 6403). CD4-IgG (Zettlmeissl et al., DNA and Cell Biology 1990, 9, 347) served as a fusion protein for negative controls. The recombinant proteins were expressed as soluble proteins after DEAE/dextran-mediated DNA-transfection in COS cells (ATCC CRL1651) according to standard procedures (Ausubel et al., Current protocols in molecular biology, John Wiley & Sons, Inc., 1994).
2. Assay for the Measurement of the Adhesion of U937 Cells to hVCAM-1(1-3)-IgG
2.1 96-well microtiter test plates (Nunc Maxisorb) were incubated at room temperature for 1 hour with 100 μl/well of a goat-anti-human IgG antibody solution (10 μg/ml in 50 mM Tris, pH 9.5). After removing the antibody solution, washing was carried out once with PBS.
2.2 150 μl/well of a blocking buffer (1% BSA in PBS) was incubated on the plates at room temperature for 0.5 hour. […]

T1 sequence (P13612 34-1032): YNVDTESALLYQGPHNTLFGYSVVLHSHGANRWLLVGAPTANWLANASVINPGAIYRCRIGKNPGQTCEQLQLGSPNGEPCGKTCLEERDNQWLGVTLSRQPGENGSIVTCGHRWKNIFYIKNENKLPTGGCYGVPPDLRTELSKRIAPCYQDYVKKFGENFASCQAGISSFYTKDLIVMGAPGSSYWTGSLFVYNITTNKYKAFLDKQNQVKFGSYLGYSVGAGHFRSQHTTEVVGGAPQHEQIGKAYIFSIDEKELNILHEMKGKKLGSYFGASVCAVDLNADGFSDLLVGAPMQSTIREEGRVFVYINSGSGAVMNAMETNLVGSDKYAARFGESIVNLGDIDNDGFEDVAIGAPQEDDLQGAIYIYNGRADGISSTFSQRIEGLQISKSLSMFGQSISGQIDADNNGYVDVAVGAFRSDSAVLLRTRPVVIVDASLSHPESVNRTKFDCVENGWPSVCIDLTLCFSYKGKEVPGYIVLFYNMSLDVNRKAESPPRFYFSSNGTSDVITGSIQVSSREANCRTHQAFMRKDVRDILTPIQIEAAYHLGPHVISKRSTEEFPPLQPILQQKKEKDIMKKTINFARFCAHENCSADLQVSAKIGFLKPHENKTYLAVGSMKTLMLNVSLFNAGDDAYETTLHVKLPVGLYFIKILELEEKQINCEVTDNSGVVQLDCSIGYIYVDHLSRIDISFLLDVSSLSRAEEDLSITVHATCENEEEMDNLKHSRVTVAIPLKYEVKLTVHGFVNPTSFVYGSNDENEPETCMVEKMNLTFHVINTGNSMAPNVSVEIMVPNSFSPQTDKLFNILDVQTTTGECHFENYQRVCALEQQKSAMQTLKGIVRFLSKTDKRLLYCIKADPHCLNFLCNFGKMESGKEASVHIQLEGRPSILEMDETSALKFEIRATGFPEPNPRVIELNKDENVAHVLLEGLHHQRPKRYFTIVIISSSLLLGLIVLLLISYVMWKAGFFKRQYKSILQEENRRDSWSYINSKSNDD
T1 sequence (P05556 21-798): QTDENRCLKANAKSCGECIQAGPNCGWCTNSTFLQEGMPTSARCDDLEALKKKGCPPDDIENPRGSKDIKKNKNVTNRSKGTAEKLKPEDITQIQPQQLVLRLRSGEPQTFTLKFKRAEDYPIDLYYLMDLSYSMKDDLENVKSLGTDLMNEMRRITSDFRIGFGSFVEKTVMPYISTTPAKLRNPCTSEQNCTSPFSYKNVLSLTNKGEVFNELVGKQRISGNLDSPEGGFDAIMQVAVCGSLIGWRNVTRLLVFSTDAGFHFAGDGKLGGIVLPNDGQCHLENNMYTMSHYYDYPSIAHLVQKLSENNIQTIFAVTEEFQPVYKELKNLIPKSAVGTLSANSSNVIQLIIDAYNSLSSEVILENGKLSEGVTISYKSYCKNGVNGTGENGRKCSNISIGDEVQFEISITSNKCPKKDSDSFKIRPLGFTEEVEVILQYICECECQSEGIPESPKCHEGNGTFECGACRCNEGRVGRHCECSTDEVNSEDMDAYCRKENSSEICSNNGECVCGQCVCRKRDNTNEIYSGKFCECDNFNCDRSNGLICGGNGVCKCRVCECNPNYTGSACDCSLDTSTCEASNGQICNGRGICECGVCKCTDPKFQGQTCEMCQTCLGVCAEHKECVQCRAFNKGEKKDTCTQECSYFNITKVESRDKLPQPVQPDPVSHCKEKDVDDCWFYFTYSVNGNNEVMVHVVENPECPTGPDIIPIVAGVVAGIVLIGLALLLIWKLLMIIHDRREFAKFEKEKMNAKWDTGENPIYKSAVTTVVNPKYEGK

| IC50 | Structure (SMILES) |
| --- | --- |
| 14.5 µM | CC1(c2ccc(C3=NCCN3)cc2)C(=O)N(CC(=O)N[C@@H](CC(=O)O)C(=O)N[C@H](C(=O)O)c2ccccc2)C(=O)N1Cc1ccc2ccccc2c1 (stereo partly drawn) [Example 2, ((R,S)-4-(4-(4,5-Dihydro-2-imidazolyl)phenyl)-3-(2-naphthylmethyl)-4-methyl-2,5-dioxoimidazolidin-1-yl)acetyl-L-aspartyl-L-phenylglycine] |
| 7.5 µM | CC1(c2ccc(C(N)=O)cc2)C(=O)N(CC(=O)N[C@@H](CC(=O)O)C(=O)N[C@H](C(=O)O)c2ccccc2)C(=O)N1Cc1ccccc1 (stereo partly drawn) [Example 1] |
| 40 µM | CC1(c2ccc(C3=NCCN3)cc2)C(=O)N(CC(=O)NC[C@H](NC(=O)OCC23CC4CC(CC(C4)C2)C3)C(=O)O)C(=O)N1Cc1ccc2ccccc2c1 (stereo partly drawn) [Example 3, (S)-3-(((R,S)-4-(4-(4,5-Dihydro-2-imidazolyl)phenyl)-3-(2-naphthylmethyl)-4-methyl-2,5-dioxoimidazolidin-1-yl)acetylamino)-2-(1-adamantyl-methyloxycarbonylamino)propionic Acid] |
